Assay results taken from patent US4272530A, “Δ^1,3,5(10) -Estratrienes” (Roussel Uclaf, priority 1977, dated 1981).

Experiments:
female mice = test: estrogenic (uterotrophic) activity by the method of Rubin, uterus weight; format: in vivo; settings: for Weight of uterus: female mice 19-21 days old, killed on 4th day, control 11.4 ± 0.5
Experimental: The estrogenic activity of the product of Example 1 was also determined by the method of Rubin [Endocrinology, Vol. 49 (1951), p. 429] in which female mice 19-21 days old received once a day for 3 days a subcutaneous injection of the test product. The animals were killed on the 4th day and the uterus was removed, dissected and weighed. The test product was administered in a volume of 0.1 ml of oily solution at doses of 0.01γ, 0.03γ, 0.09γ and 0.27γ.

[1] = molecular target: T1, specific uterine reception of estradiol (uterus cytosol) (Mus musculus, UniProt P19785); test: hormonal receptor method of Raynaud et al.: displacement of tritiated estradiol in uterus cytosol; format: binding, mice
T1 construct: the uterus was removed and homogenized in a buffered solution; from tissue; host or cells: uterus cytosol (105,000 g supernatant) of immature female mice, 18 to 21 days old
T1 sequence (P19785 1-599): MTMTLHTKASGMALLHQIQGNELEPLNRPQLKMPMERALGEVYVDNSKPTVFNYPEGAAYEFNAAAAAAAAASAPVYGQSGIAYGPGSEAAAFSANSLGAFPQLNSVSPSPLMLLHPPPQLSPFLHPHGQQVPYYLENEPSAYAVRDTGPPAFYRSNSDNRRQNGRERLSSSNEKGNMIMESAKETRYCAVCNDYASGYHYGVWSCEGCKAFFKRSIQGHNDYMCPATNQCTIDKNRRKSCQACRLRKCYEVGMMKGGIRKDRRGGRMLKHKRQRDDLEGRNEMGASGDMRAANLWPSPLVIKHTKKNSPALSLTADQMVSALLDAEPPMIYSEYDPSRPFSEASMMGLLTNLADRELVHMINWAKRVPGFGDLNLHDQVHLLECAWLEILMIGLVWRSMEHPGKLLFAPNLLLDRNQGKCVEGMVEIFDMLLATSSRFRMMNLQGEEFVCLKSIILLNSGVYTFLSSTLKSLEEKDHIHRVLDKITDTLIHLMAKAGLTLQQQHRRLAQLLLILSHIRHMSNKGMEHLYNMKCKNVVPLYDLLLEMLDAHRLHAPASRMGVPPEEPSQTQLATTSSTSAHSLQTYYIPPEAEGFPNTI
Experimental: The estrogenic activity was determined for 11β-vinyl-17α-ethynyl-^1,3,5(10) -estratriene-3,17β-diol was determined by the hormonal receptor method of Raynaud et al. [J. Ster. Biochem., Vol. 6 (1975), p. 615-622]. Immature female mice aged 18 to 21 days old were sacrificed and the uterus was removed and homogenized in a buffered solution of […] of tromethamine, 0.25 M of saccharose and a pH of 7.4 with hydrochloric acid. The homogenate was centrifuged at 105,000 g per hour and the surnageant or cytosol was adjusted to a dilution of 1/25 (weight/volume). […] The radioactivity of the tritiated product R was determined in 2 hours by the technique of adsorption on carbondextran (1.25%-0.625%). The plots were the curves representing the percentage of tritiated product R as a function of the log of the concentration of cold product R or the test product and the I50 straight line parallel to the axis of the abcisses and ordinates [formula] B/T max. is the percentage of tied tritiated product R when the product is not added and B/T min. is the percentage of tied tritiated product R when the maximum amount of cold product R is added.

Structure (SMILES): C#C[C@]1(O)CC[C@H]2[C@@H]3CCc4cc(O)ccc4[C@H]3[C@@H](C=C)C[C@@]21C [Example 1, 11β-vinyl-17α-ethynyl-Δ^1,3,5(10) -estratriene-3,17β-diol]
- uterotrophic activity (female mice; conclusion from Table IV): clear uterotrophic activity
- Weight of uterus (female mice; dose 0.01γ subcutaneous once a day for 3 days): 25.8 ± 1.7 mg
- Weight of uterus (female mice; dose 0.03γ subcutaneous once a day for 3 days): 90.1 ± 5.7 mg
- Weight of uterus (female mice; dose 0.09γ subcutaneous once a day for 3 days): 128.8 ± 12.1 mg
- Weight of uterus (female mice; dose 0.27γ subcutaneous once a day for 3 days): 107.6 ± 7.4 mg
- affinity for specific uterine reception of estradiol compared with estradiol ([1]; conclusion from Table III): greater affinity for specific uterine reception of estradiol than estradiol
- ARL (relative affinity of the test product) ([1]; immature female mouse uterus cytosol, tritiated estradiol, 25° C. for 5 hours, estradiol = 100): 240
